Measurements: patent US12195427B2, “MASP-2 inhibitors and methods of use” (priority 2018, dated 2025)
Counter-ions that a name gives are not always drawn. One block for each compound: values may come before it.

Tests used:
[1] = target: MASP-2 (CCP1-CCP2-SP) (Homo sapiens (Human), UniProt O00187); assay: Enzymatic Assay for MASP-2 (fluorogenic substrate); assay type: biochemical; details: +Zn
[2] = target: MASP-2 CCP2-SP (Homo sapiens (Human), UniProt O00187); assay: MASP-2 co-crystallization, X-ray crystallography and structure analysis (H-bonds, van der Waals contacts); set-up: van der Waals contact distance, MASP-2 HIS 483 atom CD2 / van der Waals contact distance, MASP-2 HIS 483 atom NE2 / van der Waals contact distance, SER 654 C to compound atom / van der Waals contact distance, SER 654 O to compound atom / van der Waals contact distance, TRP 655 C to compound atom / van der Waals contact distance, MASP-2 GLY 528 atom CA / van der Waals contact distance TRP 655 atom CZ3 / van der Waals contact distance TRP 655 atom N / van der Waals contact distance TRP 655 atom CE3 / van der Waals contact distance GLY 656 atom C / van der Waals contact distance GLY 656 atom CA / van der Waals contact distance GLY 656 atom O / van der Waals contact distance, MASP-2 TYR 607 atom CD1 / van der Waals contact distance, MASP-2 PRO 606 atom O / d(C3,CA1) / d(CA1,N1)2 / d(H4,O1) / d(H4,O2) / d(O1,O2) / d(CA1,O2) / d(CA6,O1) / d(CA6,O2) / d(CA1,C5) / d(O2,H3) / d(N2,C2) / d(CA5,N2) / d(N2,C4) / d(N2,C6) / d(N2,CA3) / d(N2,O3) / d(O4,H2): unit not given beside the values; details: for Ligand-pharmacophore element distance, pharmacophore element C2 / Ligand-pharmacophore element distance, pharmacophore element C3 / Ligand-pharmacophore element distance, pharmacophore element C4 / Ligand-pharmacophore element distance, pharmacophore element C5 / Ligand-pharmacophore element distance, pharmacophore element C6 / Ligand-pharmacophore element distance, pharmacophore element C7 / Ligand-pharmacophore element distance, pharmacophore element CA1 / Ligand-pharmacophore element distance, pharmacophore element CA2 / Ligand-pharmacophore element distance, pharmacophore element CA3 / Ligand-pharmacophore element distance, pharmacophore element CA4 / Ligand-pharmacophore element distance, pharmacophore element CA5 / Ligand-pharmacophore element distance, pharmacophore element CA6: Table A4-1;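 on Ligand-pharmacophore element distance, pharmacophore element C2: distance from averaged pharmacophore element to bound ligand; missing value means element absent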;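 on Ligand-pharmacophore element distance, pharmacophore element C3: distance from averaged pharmacophore element to bound ligand; missing value means element absent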;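 on Ligand-pharmacophore element distance, pharmacophore element C4: distance from averaged pharmacophore element to bound ligand; missing value means element absent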;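 on Ligand-pharmacophore element distance, pharmacophore element C5: distance from averaged pharmacophore element to bound ligand; missing value means element absent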
MASP-2 CCP2-SP, sequence (O00187 445-686): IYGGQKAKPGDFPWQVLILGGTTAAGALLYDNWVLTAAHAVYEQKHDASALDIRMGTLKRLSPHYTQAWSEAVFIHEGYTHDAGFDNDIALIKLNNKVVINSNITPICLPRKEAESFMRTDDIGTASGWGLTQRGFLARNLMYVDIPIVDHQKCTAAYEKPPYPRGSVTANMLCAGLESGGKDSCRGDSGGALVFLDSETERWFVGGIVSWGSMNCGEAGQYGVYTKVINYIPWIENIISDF
MASP-2 CCP2-SP, sequence (O00187 364-432 partner): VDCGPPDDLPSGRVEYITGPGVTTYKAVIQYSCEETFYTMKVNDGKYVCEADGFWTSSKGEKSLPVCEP
In short: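 Soaked crystals of recombinant CCP2-SP (E. coli) yield the structures, phased by molecular replacement on 1Q3X pieces. Hydrophobic or nonbonded contacts can also cover atom pairs that are potential hydrogen bonds.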

[3] = Table A5-1 pharmacophore: distance between elements, S2/S1 region
[4] = Table A5-2 pharmacophore distance, S3/S4 region
[5] = Table A7-1, between pharmacophore elements of the bound compound
[6] = Table A7-2, between pharmacophore elements of the bound compound

MASP-2 (CCP1-CCP2-SP), sequence (O00187 445-686): as the sequence (O00187 445-686) above

Compound: N=C(N)c1ccc2[nH]c(Cc3ccccn3)nc2c1 [compound 2002, 2-(Pyridin-2-ylmethyl)-1H-benzo[d]imidazole-5-carboximidamide Dihydrochloride]
MASP-2 versus thrombin selectivity [1]: ++ (+Zn) (5.0 to 25-fold)

Compound: CC(=O)Nc1ccc(CCNC(CCc2ccccc2)C(=O)NC(C)C(=O)NCc2ccc(C(=N)N)cc2)cc1.Cl.Cl (stereo not drawn) [1345_2]
Ligand-pharmacophore element distance, pharmacophore element C2 [2]: 0
Ligand-pharmacophore element distance, pharmacophore element C3 [2]: 0
Ligand-pharmacophore element distance, pharmacophore element C4 [2]: 0
Ligand-pharmacophore element distance, pharmacophore element C5 [2]: 0
Ligand-pharmacophore element distance, pharmacophore element C6 [2]: 0
Ligand-pharmacophore element distance, pharmacophore element C7 [2]: 0
Ligand-pharmacophore element distance, pharmacophore element CA1 [2]: 0.45
Ligand-pharmacophore element distance, pharmacophore element CA2 [2]: 0.89
Ligand-pharmacophore element distance, pharmacophore element CA3 [2]: 1.13
Ligand-pharmacophore element distance, pharmacophore element CA4 [2]: 0
Ligand-pharmacophore element distance, pharmacophore element CA5 [2]: 0
Ligand-pharmacophore element distance, pharmacophore element CA6 [2]: 0
d(CA1,O1) [2, 3]: 4.58
d(CA1,O2) [2, 3]: 4.16
d(H4,O1) [2, 3]: 4.97
d(H4,O2) [2, 3]: 4.32
d(O1,O2) [2, 3]: 3.32
d(N2,CA2) [2, 4]: 5.98
d(N2,CA3) [2, 4]: 5.15
d(N2,O3) [2, 4]: 8.73
d(O2,H3) [2, 4]: 5.51
d(O2,N2) [2, 4]: 2.87
a(CA1, O1, O2) ([2]; Table A6-1 pharmacophore angle): 105.43
a(O1, O2, H4) ([2]; Table A6-1 pharmacophore angle): 138.87
a(O1, O2, H3) ([2]; Table A6-2 pharmacophore angle): 152.27
a(O1, O2, N2) ([2]; Table A6-2 pharmacophore angle): 142.63
a(O2, N2, CA2) ([2]; Table A6-2 pharmacophore angle): 153.90
a(O2, N2, CA3) ([2]; Table A6-2 pharmacophore angle): 151.66
a(O2, N2, O3) ([2]; Table A6-2 pharmacophore angle): 162.76
Pharmacophore torsion angle a(H4, O1, O2, H3) [2, 5]: 49.59
Pharmacophore torsion angle a(H4, O1, O2, N2) [2, 5]: 128.64
Pharmacophore torsion angle a(O1, H4, O2, CA1) [2, 5]: −68.67
Pharmacophore torsion angle a(O1, O2, N2, CA2) [2, 6]: 129.85
Pharmacophore torsion angle a(O1, O2, N2, CA3) [2, 6]: −34.52
Pharmacophore torsion angle a(O1, O2, N2, O3) [2, 6]: −20.78

Compound: C[C@H](NC(=O)[C@H]1C[C@@H](c2ccccc2)CCN1)C(=O)NCc1cc(Cl)ccc1O.Cl [1078_9]
Ligand-pharmacophore element distance, pharmacophore element C2 [2]: 0.67
Ligand-pharmacophore element distance, pharmacophore element C3 [2]: 0
Ligand-pharmacophore element distance, pharmacophore element C4 [2]: 0
Ligand-pharmacophore element distance, pharmacophore element C5 [2]: 0.46
Ligand-pharmacophore element distance, pharmacophore element C6 [2]: 0
Ligand-pharmacophore element distance, pharmacophore element C7 [2]: 0
Ligand-pharmacophore element distance, pharmacophore element CA1 [2]: 1.62
Ligand-pharmacophore element distance, pharmacophore element CA2 [2]: 0.56
Ligand-pharmacophore element distance, pharmacophore element CA3 [2]: 0
Ligand-pharmacophore element distance, pharmacophore element CA4 [2]: 0
Ligand-pharmacophore element distance, pharmacophore element CA5 [2]: 0
Ligand-pharmacophore element distance, pharmacophore element CA6 [2]: 0
d(CA1,C5) [2, 3]: 3.11
d(CA1,O1) [2, 3]: 4.31
d(CA1,O2) [2, 3]: 4.77
d(CA1,O4) [2, 3]: 2.74
d(H4,O1) [2, 3]: 2.21
d(H4,O2) [2, 3]: 2.49
d(O1,O2) [2, 3]: 3.11
d(O4,H2) [2, 3]: 0.98
d(N2,C2) [2, 4]: 1.46
d(N2,CA2) [2, 4]: 5.71
d(O2,H3) [2, 4]: 3.06
d(O2,N2) [2, 4]: 2.89
a(C5, CA1, O1) ([2]; Table A6-1 pharmacophore angle): 161.68
a(CA1, O1, O2) ([2]; Table A6-1 pharmacophore angle): 117.85
a(CA1, O4, H2) ([2]; Table A6-1 pharmacophore angle): 128.05
a(O1, CA1, O4) ([2]; Table A6-1 pharmacophore angle): 66.67
a(O1, O2, H4) ([2]; Table A6-1 pharmacophore angle): 97.24
a(O1, O2, H3) ([2]; Table A6-2 pharmacophore angle): 142.04
a(O1, O2, N2) ([2]; Table A6-2 pharmacophore angle): 146.14
a(O2, N2, C2) ([2]; Table A6-2 pharmacophore angle): 119.45
a(O2, N2, CA2) ([2]; Table A6-2 pharmacophore angle): 153.36
Pharmacophore torsion angle a(C5, CA1, O1, H4) [2, 5]: 14.92
Pharmacophore torsion angle a(H4, O1, O2, H3) [2, 5]: −116.62
Pharmacophore torsion angle a(H4, O1, O2, N2) [2, 5]: −110.81
Pharmacophore torsion angle a(O1, H4, O2, CA1) [2, 5]: −50.72
Pharmacophore torsion angle a(O1, O2, N2, C2) [2, 5]: 144.64
Pharmacophore torsion angle a(O1, O2, N2, CA2) [2, 6]: 146.06

H-bond distance to MASP-2 ASP 627 atom OD2 ([2]; Table A1 (H-Bonds), ASP 627 OD2): 3.23
H-bond distance to MASP-2 GLY 656 atom N ([2]; Table A1 (H-Bonds), GLY 656 N): 3.2
H-bond distance to MASP-2 SER 628 atom O ([2]; Table A1 (H-Bonds), SER 628 O): 3.06
H-bond distance to MASP-2 SER 654 atom O ([2]; Table A1 (H-Bonds), SER 654 O): 3.07
H-bond distance to MASP-2 SER 657 atom O ([2]; Table A1 (H-Bonds), SER 657 O): 2.91
van der Waals contact distance, MASP-2 amino acid atom to compound atom ([2]; Table A2): 3.8
van der Waals contact distance, MASP-2 HIS 483 atom CD2 ([2]; Table A2-1): 3.74
van der Waals contact distance, MASP-2 HIS 483 atom NE2 ([2]; Table A2-1): 3.61
van der Waals contact distance, MASP-2 GLY 528 atom CA ([2]; Table A2-2): 3.71
van der Waals contact distance, MASP-2 PHE 529 atom CE1 ([2]; Table A2-3): 3.85
van der Waals contact distance, MASP-2 amino acid atom to compound atom ([2]; Table A2-9, ARG 630, AA atoms CG, CZ): 3.87
van der Waals contact distance, VAL 653 CG1 to compound atom ([2]; Table A2-11): 3.38
van der Waals contact distance, SER 654 O to compound atom ([2]; Table A2-12): 3.85
van der Waals contact distance, TRP 655 CA to compound atom ([2]; Table A2-12): 3.34
van der Waals contact distance TRP 655 atom CE3 ([2]; Table A2-13, MASP-2 TRP 655 CE3, compound atom in line below): 3.65
van der Waals contact distance TRP 655 atom CZ3 ([2]; Table A2-13, MASP-2 TRP 655 CZ3): 3.75
Ligand-pharmacophore element distance, pharmacophore element C2 [2]: 0.54
Ligand-pharmacophore element distance, pharmacophore element C3 [2]: 0.17
Ligand-pharmacophore element distance, pharmacophore element C4 [2]: 0
Ligand-pharmacophore element distance, pharmacophore element C5 [2]: 0
Ligand-pharmacophore element distance, pharmacophore element C6 [2]: 0
Ligand-pharmacophore element distance, pharmacophore element C7 [2]: 0
Ligand-pharmacophore element distance, pharmacophore element CA1 [2]: 0.64
Ligand-pharmacophore element distance, pharmacophore element CA2 [2]: 0.64
Ligand-pharmacophore element distance, pharmacophore element CA3 [2]: 0
Ligand-pharmacophore element distance, pharmacophore element CA4 [2]: 0
Ligand-pharmacophore element distance, pharmacophore element CA5 [2]: 0
Ligand-pharmacophore element distance, pharmacophore element CA6 [2]: 0
d(C3,CA1) [2, 3]: 2.85
d(CA1,N1)2 [2, 3]: 1.37
d(CA1,O1) [2, 3]: 4.27
d(CA1,O2) [2, 3]: 3.96
d(H4,O1) [2, 3]: 4.29
d(H4,O2) [2, 3]: 3.79
d(O1,O2) [2, 3]: 3.29
d(N2,C2) [2, 4]: 1.45
d(N2,CA2) [2, 4]: 5.75
d(O2,H3) [2, 4]: 4.15
d(O2,N2) [2, 4]: 2.72
a(C3, CA1, O1) ([2]; Table A6-1 pharmacophore angle): 148.89
a(CA1, O1, O2) ([2]; Table A6-1 pharmacophore angle): 108.56
a(O1, O2, H4) ([2]; Table A6-1 pharmacophore angle): 132.47
a(N1, CA1, O1) b) ([2]; Table A6-1 pharmacophore angle, Methyl-amino-pyridine compounds): 173.13
a(O1, O2, H3) ([2]; Table A6-2 pharmacophore angle): 145.43
a(O1, O2, N2) ([2]; Table A6-2 pharmacophore angle): 144.23
a(O2, N2, C2) ([2]; Table A6-2 pharmacophore angle): 131.10
a(O2, N2, CA2) ([2]; Table A6-2 pharmacophore angle): 156.32
Pharmacophore torsion angle a(C3, CA1, O1, H4) [2, 5]: 21.88
Pharmacophore torsion angle a(H4, O1, O2, H3) [2, 5]: 50.54
Pharmacophore torsion angle a(H4, O1, O2, N2) [2, 5]: 141.99
Pharmacophore torsion angle a(N1, CA1, O1, H4) [2, 5]: −6.82
Pharmacophore torsion angle a(O1, H4, O2, CA1) [2, 5]: −80.01
Pharmacophore torsion angle a(O1, O2, N2, C2) [2, 5]: 117.29
Pharmacophore torsion angle a(O1, O2, N2, CA2) [2, 6]: 126.16
Compound: Cc1nc(N)ccc1CNC(=O)[C@H](C)NC(=O)[C@H]1C[C@@H](c2ccccc2)CCN1C [compound 1441, (2R,4S)—N—((S)-1-(((6-Amino-2-methylpyridin-3-yl)methyl)amino)-1-oxopropan-2-yl)-1-methyl-4-phenylpiperidine-2-carboxamide]
